Measured values reported in US5278045A, “Method and compositions to screen compounds for enhancement of the cholinergic, dopaminergic and serotonergic function” (Du Pont Merck Pharmaceutical Company, priority 1990, dated 1994).

Tests used:
DuP 996 binding protein = test: Radioreceptor screening assay (displacement of tritiated DuP 996); design: species or system rat; settings: inhibition of binding of 10 nM tritiated DuP 996, pH 7.4, 25° C., 60 minutes
Protocol: Male Sprague-Dawley rats (Charles River Breeding Laboratories) at 200-250 g were euthanatized by decapitation. Rat brain regions were dissected according to Heffner et al., Pharmacol. Biochem. Behav., 13, 453 (1980). Brain membranes were prepared by the method of Tam, Proc. Natl. Acad. Sci. USA, 80, 6703 (1983). The brain tissues were homogenized (20 sec) in 10 vol (wt/vol) of ice-cold 0.32M sucrose with a Brinkman Polytron (setting 8). The homogenate was centrifuged at 920×g for 10 min at 4° C. The supernatant was centrifuged at 47,000×g for 20 min. The resulting membrane pellet was resuspended in 10 vol (original wt/vol) of 50 mM Tris-HCl (pH 7.4) and incubated at 37° C. for 30 min to degrade and dissociate bound endogenous ligands. The membranes were then centrifuged at 47,000×g for 20 min and resuspended in 50 mM Tris-HCl.
Compounds to be screened were incubated with brain membranes. (1-2 mg protein) in 50 mM Tris-HCl buffer, pH 7.4, for 10 minutes in 25° C. Then 10 nM tritiated DuP 996 or its active structural analogs were added and incubated at 25° C. for 60 minutes. The samples were filtered on Whatman GF/B glass filters which had been soaked in 0.2% polyethylenimine and washed 3 times each with 5 ml of ice-cold Tris buffer. Nonspecific binding was determined by performing binding in the presence of 10 μM DuP 996. The control represents specific binding in the absence of compounds to be screened. Screened compounds which inhibited the specific binding of tritiated DuP 996 or analogs to its binding protein should be active in binding to the same protein. This is illustrated further in Example 4, Part B.

ACh release = test: Neurotransmitter release assay: stimulated ACh release from brain slices; design: species or system rat; settings: concentration to enhance stimulated release of ACh by 100% (2-fold) over control, from dose response curves
Protocol: Male Wistar rats weighing 175-200 g were euthanatized and the brains were dissected out immediately. Slices (0.3 mm thick) from the parietal cortex were prepared manually by using a recessed Lucite® guide. Slices (1.5 mm thick) from the hippocampus and the caudate nucleus were prepared by using a slotted brain holder. All slices were subsequently cut into 0.25×0.25 mm squares with a McIlwain tissue chopper.
Labeling of transmitter stores in slices was prepared by the following methods. For ACh release, slices (approximately 100 mg wet weight) were incubated in 10 ml Krebs-Ringer (KR) medium containing (mM): NaCl(116), KCl(3), CaCl2 (1.3), MgCl2 (1.2), KH2 PO4 (1.2), Na2 SO4 (1.2), NaHCO3 (25) and glucose(11), to which 10 μCi ^3 H-choline (specific activity approx. 80 Ci/mmol: NEN) and 10 nmol unlabeled choline had been added to give a final concentration of 10^-6 M. Incubation was carried out for 30 min at 37° C. under a steady flow of 95% O2 /5% CO2. Under these conditions, part of the radioactive choline taken up is converted into radioactive ACh by cholinergic nerve endings, stored in synaptic vesicles, and released upon depolarization by high-K^+ -containing medium [Molenaar et al., 1973a]. For dopamine (DA), serotonin (5-HT), and norepinephrine (NE) release, slices (approximately 100 mg wet weight) were incubated in KR medium containing 0.01 mM nialamide at 37° C. under a steady flow of 95% O2 /5% CO2. The MAO-inhibitor nialamide was added to the medium in order to inhibit metabolism to the monoamines. Incubation was for 30 min in 10 ml of KR medium to which 10 μCi ^3 H-dopamine, ^3 H-norepinephrine, or ^3 H-5-hydroxytryptamine (specific activity 30, 45, and 78 Ci/mmol, respectively: all from NEN) had been added.
Separate experiments were performed for the release of each neurotransmitter. After labeling of the transmitter stores, the slices were washed three times with non-radioactive KR medium and transferred to a superfusion apparatus to measure the drug effects on transmitter release [Schoemaker et al., Psychopharmacology 74, 137 (1981)]. The superfusion apparatus consisted of 10 thermo-jacketed glass columns of 5 mm diameter which were provided with GF/F glass fiber filters to support the brain slices (approximately 10 mg tissue/column). Superfusion was carried out with KR medium at a rate of 0.3 ml/min. For ACh release, 10^-5 M hemicholinium-3 was added to the medium to prevent the uptake of choline formed during superfusion from phospholipids and released ACh, so that it could not be subsequently converted into newly synthesized ACh, which would be released in preference to the pre-formed, labeled ACh. The medium was delivered by a 25-channel peristaltic pump (Ismatec; Brinkman) and maintained at 37° C. by a thermostated stainless-steel heating coil before entering the superfusion column. Each column was provided with a four-way slider valve (Beckman Instruments) which allowed rapid change of low-to-high-K^+ -KR-medium and with two 10-channel, 3-way valves which were used to change form drug-free to drug-containing low- and high-K^+ -KR media.
After 15 min washout of non-specifically bound radioactivity during superfusion, the collection of fractions of 4 min (1.2 ml) each was started. After 3×4 min, the KR medium was changed to a KR medium with 25 mM KCl (ACh, 5-HT release) or 12.5 mM KCl (DA release) (high K^+ -KR medium; S1). Depolarization-induced stimulation of release by high-K^+ -KR medium was then substituted by drug- or vehicle-containing low- and high-K^+ -KR medium and superfusion continued for 3×4 min with low-K^+ -KR medium, for 1×4 min with high-K^+ -KR medium (S2), and for 2×4 min with low-K^+ -KR medium.
Compounds were added to the medium by 100-fold dilution of appropriate stock solutions (in 0.9% NaCl/H2 O) with either low- or high-K^+ -KR medium.
All superfusion fractions were collected in liquid scintillation counting vials.

Row | Structure (SMILES) | IC50 (DuP 996 binding protein) | ACh Release EC100 (ACh release)
1 | O=C1c2c(Cl)cccc2C(Cc2ccncc2)(Cc2ccncc2)c2cccc(Cl)c21 [Compound 3, 10,10-Bis-(4-pyridinylmethyl)-1,8-dichloro-9(10H)-anthracenone] | 0.032 µM | 170 nM
2 | O=C1c2ccccc2C(Cc2ccncc2)(Cc2ccncc2)c2ccccc21 [Compound 4, 10,10-Bis(4-pyridinylmethyl)-9(10H)-anthracenone] | 0.034 µM | 90 nM
3 | O=C1N2c3ccccc3CCc3cccc(c32)C1(Cc1ccncc1)Cc1ccncc1 [Compound 5, 2,2-Bis(4-pyridinylmethyl)-6,7-dihydro-indole(1,7-AB)(1)-benzapin-1(2H)-one] | 0.046 µM | 2,500 nM
4 | c1ccc2c(c1)Sc1ccccc1C2(Cc1ccncc1)Cc1ccncc1 [Compound 6, 4,4'-[9H-Thioxanthen-9,9-diylbis(methylene)]pryidine] | 0.051 µM | 1,500 nM
5 | Cc1ccc2c(c1)C(Cc1ccncc1)(Cc1ccncc1)c1ccccc1-2 [Compound 8, 4-[2-Methyl-9-(4-pyridinyl-methyl)-9H-fluoren-9-ylmethyl]pyridine] | 0.062 µM | 170 nM
6 | c1ccc2c(c1)-c1ccccc1C2(Cc1ccncc1)Cc1ccncc1 [Compound 9, 9,9-Bis(4-pyridinylmethyl)-9H-fluorene] | 0.062 µM | 340 nM
7 | COc1ccc(C(C#N)(Cc2ccncc2)Cc2ccncc2)cc1 [Compound 10, α-(4-Methoxyphenyl)-α-(4-pyridinylmethyl)-4-pyridinepropane nitrile] | 0.119 µM | 1,600 nM
8 | C=C1c2cccc3cccc(c23)C1(Cc1ccncc1)Cc1ccncc1 [Compound 11, 4-[1,2-Dihydro-2-methyl-ene-1-(4-pyridinylmethyl)-1-acenaphthylen-1-yl-methyl]-pyridine] | 0.12 µM | 3,300 nM
9 | c1cnc2c(c1)C(Cc1ccncc1)(Cc1ccncc1)c1cccnc1-2 [Compound 12, 5,5-Bis(4-pyridinyl-methyl)-5H-cyclopenta(2,1-B:3,4-B')-dipyridine] | 0.168 µM | 1,400 nM
10 | O=C1N(c2ccccc2)c2ccccc2C1(Cc1ccncc1)Cc1ccncn1 (stereo not drawn) [Compound 13, 1,3-Dihydro-1-phenyl-3-(4-pyridinylmethyl)-3(4-pyrimidinylmethyl)-2H-indol-2-one] | 0.179 µM | 1,500 nM
11 | Cc1ccc2c(c1)N(c1ccccc1)C(=O)C2(Cc1ccncc1)Cc1ccncc1 [Compound 14, 3,3-Bis(4-pyridinylmethyl)-1,3-dihydro-6-methyl-1-phenyl-2H-indol-2-one] | 0.198 µM | 4,800 nM
12 | O=C1N2CCCc3cccc(c32)C1(Cc1ccncc1)Cc1ccncc1 [Compound 15, 1,1-Bis(4-pyridinylmethyl)5,6-dihydro-4H-pyrollo(3,2,1-IJ)quinolin-2(1H)-one] | 0.558 µM | 14,000 nM
13 | O=C1N(c2ccccc2)c2ccccc2C1(Cc1ccncn1)Cc1ccncn1 [Compound 16, 3,3-Bis(4-pyrimidinylmethyl)-1-phenyl-1H-indol-2(3H)-one] | 0.57 µM | 3,500 nM
14 | O=C1N(c2ccccc2)c2ccccc2C1(Cc1ccncc1)Cc1cn[nH]c1 (stereo not drawn) [Compound 17, 1,3-Dihydro-1-phenyl-3-(1H-pyrazol-4-ylmethyl)-3-(4-pyridinyl-methyl)-2H-indol-2-one] | 0.67 µM | 3,000 nM
15 | O=C1N(c2ccccc2)c2ccccc2C1(Cc1ccncc1)CC1CCCO1 (stereo not drawn) [Compound 18, 1,3-Dihydro-1-phenyl-3-(4-pyridinylmethyl)-3-(tetrahydro-2-furanyl-methyl)-2H-indol-2-one] | 1.04 µM | 34,000 nM
16 | O=C1N(Cc2ccccc2)c2ccccc2C1(Cc1ccncc1)Cc1ccncc1 [Compound 19, 3,3-Bis(4-pyridinyl-methyl)-1,3-dihydro-1-(phenylmethyl)-2H-indol-2-one] | 1.17 µM | 4,500 nM
17 | O=C1N(c2ccccc2)c2ccccc2C1(Cc1cnccn1)Cc1cnccn1 [Compound 20, 3,3-Bis(2-pyrazinylmethyl)-1-phenyl-1H-indol-2(3H)-one] | 4.2 µM | 11,000 nM
18 | O=C1C(Cc2cccnc2)c2ccccc2N1c1ccccc1 (stereo not drawn) [Compound 21, 1,3-Dihydro-1-phenyl-3-(3-pyridinylmethyl)-2H-indol-2-one] | 6.03 µM | 12,000 nM
19 | CN1C(=O)C(Cc2ccncc2)(Cc2ccncc2)c2ccccc21 [Compound 22, 1,3-Dihydro-1-methyl-3-3-bis(4-pyridinylmethyl)-2-H-indol-2-one] | 15.9 µM | 17,000 nM
20 | O=C1N(c2ccccc2)c2ccccc2C1(c1cncnc1)c1cncnc1 [Compound 24, 3,3-Bis(5-pyrimidinyl)-1,3-dihydro-1-phenyl-2H-indol-2-one] | 75.9 µM | 980,000 nM
21 | CN1CCC(CC2(CC3CCN(C)CC3)C(=O)N(c3ccccc3)c3ccccc32)CC1 [Compound 25, 3,3-Bis(1-methyl-4-piperidinylmethyl)-1,3-dihydro-1-phenyl-2H-indol-2-one] | 970 µM | 1,200,000 nM
22 | O=C1C(C(O)(c2ccccn2)c2ccccn2)c2ccccc2N1c1ccccc1 (stereo not drawn) [Compound 26, 3[Bis(2-pyridinyl)-(hydroxy)methyl]-1,3-dihydro-1-phenyl-2H-indol-2-one] | 980 µM | 1,000,000 nM
23 | O=C1N(c2ccccc2)c2ccccc2C1(Cc1cnn(Cc2ccccc2)c1)Cc1cnn(Cc2ccccc2)c1 [Compound 27, 3,3-Bis[1-(phenylmethyl)-1H-pyrazol-4-ylmethyl]-1,3 dihydro-1-phenyl-2H-indol-2-one] | 990 µM | 1,300,000 nM
24 | O=C1N(c2ccccc2)c2ccccc2C1(Cc1ccnnc1)Cc1ccnnc1 [Compound 28, 3,3-Bis(4-pyridazinyl-methyl)-1,3-dihydro-1-phenyl-2H-indol-2-one] | 1000 µM | 1,000,000 nM
